The subject of series [1] is metastatic castration-resistant prostate cancer (CRPC) with bone metastases. Description: case studies: metastatic CRPC patients treated with Compound 1. Conditions: three metastatic CRPC patients. Type of series: in vivo, human. The source says:
Bone metastases are present in 90% of patients with castration-resistant prostate cancer (CRPC), causing significant morbidity and mortality.

Another series is described as follows: oral bioavailability. As to conditions: in vivo.
Series [2] concerns endothelial cells and tumor cells. Description: induction of apoptosis.
Another series relates to xenograft tumor models. Kind of series: xenograft tumor models.
The subject of a further series is MET and VEGFR signaling. Description: suppression of MET and VEGFR signaling.
In series [3] the test system is pancreatic neuroendocrine tumor model. Kind of series: murine pancreatic neuroendocrine tumor model.
Series [4] is described as follows: gravimetric vapor sorption (GVS) study. Type of series: physicochemical. As to conditions: 25° C. and 90% humidity. As for the experimental part:
A gravimetric vapor sorption (GVS) study was run using a standard procedure. Samples were run on a dynamic vapor sorption analyzer (Surface Measurement Systems) running DVSCFR software. Sample sizes were typically 10 mg. A moisture adsorption desorption isotherm was performed as outlined below. The standard isotherm experiment, performed at 25° C., is a two-cycle run, starting at 40% RH, increasing humidity to 90% RH, decreasing humidity to 0% RH, increasing humidity again to 90% RH, and finally decreasing humidity to 0% RH in 10% RH intervals.

The values that follow come from patent US20140066444A1, “Method of Treating Cancer” (Exelixis, Inc., priority 2010, published 2014).

For the molecule `COc1cc2c(Oc3ccc(NC(=O)C4(C(=O)Nc5ccc(F)cc5)CC4)cc3F)ccnc2cc1OCCCN1CCOCC1` [Compound 1], in series [1], the bone lesions entry is on record as “near complete resolution of bone lesions”, the bone pain entry is “marked reduction”, the measurable disease result is “reduction in measurable disease” and the “total serum alkaline phosphatase (tALP) levels” value is reported as “marked reduction”. Also, the oral bioavailability result in the series “oral bioavailability” was “orally bioavailable”. In addition, the “apoptosis of endothelial cells and tumor cells” value in series [2] is on record as “rapidly induces apoptosis”. Also, in the series on xenograft tumor models, the tumor regression entry is given as “causes tumor regression”. Also, the “MET and VEGFR signaling” value with MET and VEGFR signaling is “suppresses”. Further, in series [3], the overall survival entry is on record as “substantially improves”; the “tumor invasiveness and metastasis” value is “significantly reduces”.
As for `COc1cc2c(Oc3ccc(NC(=O)C4(C(=O)Nc5ccc(F)cc5)CC4)cc3F)ccnc2cc1OCCCN1CCOCC1.O` [crystalline Compound 1, N-[3-fluoro-4-({6-(methyloxy)-7-[(3-morpholin-4-ylpropyl)oxy]quinolin-4-yl}oxy)phenyl]-N′-(4-fluorophenyl)cyclopropane-1,1-dicarboxamide crystalline hydrate], the “weight gain (GVS)” value in series [4] came to 2.5%.
